According to US12251387B2, “Substituted quinoxalines and benzo[c][1,2,5]oxadiazoles as DNA-PK inhibitors” (Vertex Pharmaceuticals Incorporated, priority 2013, dated 2025):

The compounds below were run against DNA-PK (Homo sapiens, UniProt P78527) (assay: DNA-PK Inhibition Assay (standard radiometric kinase assay, 33P-ATP, peptide substrate)). Settings: radiometric assay, approximately 6 nM DNA-PK, 100 μM ATP, 45 min; fit to competitive tight-binding inhibition; read-out: Ki for the inhibition of DNA-PK.
Type: biochemical
Method: Compounds were screened for their ability to inhibit DNA-PK kinase using a standard radiometric assay. Briefly, in this kinase assay the transfer of the terminal ^33P-phosphate in ^33P-ATP to a peptide substrate is interrogated. The assay was carried out in 384-well plates to a final volume of 50 μL per well containing approximately 6 nM DNA-PK, 50 mM HEPES (pH 7.5), 10 mM MgCl2, 25 mM NaCl, 0.01% BSA, 1 mM DTT, 10 μg/mL sheared double-stranded DNA (obtained from Sigma), 0.8 mg/mL DNA-PK peptide (Glu-Pro-Pro-Leu-Ser-Gln-Glu-Ala-Phe-Ala-Asp-Leu-Trp-Lys-Lys-Lys, obtained from American Peptide), and 100 μM ATP. Accordingly, compounds of the invention were dissolved in DMSO to make 10 mM initial stock solutions. Serial dilutions in DMSO were then made to obtain the final solutions for the assay. A 0.75 μL aliquot of DMSO or inhibitor in DMSO was added to each well, followed by the addition of ATP substrate solution containing ^33P-ATP (obtained from Perkin Elmer). The reaction was started by the addition of DNA-PK, peptide and ds-DNA. After 45 min, the reaction was quenched with 25 μL of 5% phosphoric acid. The reaction mixture was transferred to MultiScreen HTS 384-well PH plates (obtained from Millipore), allowed to bind for one hour, and washed three times with 1% phosphoric acid. Following the addition of 50 μL of Ultima Gold™ high efficiency scintillant (obtained from Perkin Elmer), the samples were counted in a Packard TopCount NXT Microplate Scintillation and Luminescence Counter (Packard BioScience). The Ki values were calculated using Microsoft Excel Solver macros to fit the data to the kinetic model for competitive tight-binding inhibition.

Ki, < 100 nM:
OCc1ccnc(N[C@H]2CC[C@@H](Oc3cc(N4CCOCC4)cc4nccnc34)CC2)c1 [Compound 615]
Fc1c(NC2CCOCC2)ncnc1N[C@H]1CC[C@@H](Oc2cc(N3CCOCC3)cc3nccnc23)CC1 [Compound 378]
CN(C)c1nccc(N[C@H]2CC[C@@H](Oc3cc(N4CCOCC4)cc4nccnc34)CC2)n1 [Compound 453]
c1cnc2c(O[C@H]3CC[C@@H](Nc4ncc(CN5CCOCC5)cn4)CC3)cc(N3CCOCC3)cc2n1 [Compound 530]
COc1cccnc1N[C@H]1CC[C@@H](Oc2cc(N3CCOCC3)cc3nccnc23)CC1 [Compound 592]
O=C(O)c1cc(N[C@H]2CC[C@@H](Oc3cc(N4CCOCC4)cc4nccnc34)CC2)ccc1F [Compound 420]
Cc1csc(N[C@H]2CC[C@@H](Oc3cc(N4CCOCC4)cc4nccnc34)CC2)n1 [Compound 284]
COc1cncc(NC[C@H]2CC[C@@H](Oc3cc(N4CCOCC4)cc4nccnc34)CC2)c1 [Compound 347]
Cc1nccc(N[C@H]2CC[C@@H](Oc3cc(C4=CCOCC4)cc4nccnc34)CC2)n1 [Compound 352]
COc1c(N[C@H]2CC[C@@H](Oc3cc(N4CCOCC4)cc4nccnc34)CC2)ncnc1N(C)C [Compound 388]
COc1ncc(N[C@H]2CC[C@@H](Oc3cc(N4CCOCC4)cc4nccnc34)CC2)cn1 [Compound 574]
c1cc(N[C@H]2CC[C@@H](Oc3cc(N4CCOCC4)cc4nccnc34)CC2)c2c(c1)OCO2 [Compound 339]
c1cc(N[C@H]2CC[C@@H](Oc3cc(N4CCOCC4)cc4nccnc34)CC2)n2ncnc2c1 [Compound 581]
Cc1nc(N[C@H]2CC[C@@H](Oc3cc(N4CCOCC4)cc4nccnc34)CC2)ncc1F [Compound 476]
Clc1cc(N[C@H]2CC[C@@H](Oc3cc(N4CCOCC4)cc4nccnc34)CC2)nc(C2CC2)n1 [Compound 605]
CNc1nccc(N[C@H]2CC[C@@H](Oc3cc(N4CCOCC4)cc4nccnc34)CC2)n1 [Compound 454]
c1ncc(N[C@H]2CC[C@@H](Oc3cc(N4CCOCC4)cc4nccnc34)CC2)cn1 [Compound 575]
c1ccc(N[C@H]2CC[C@@H](Oc3cc(N4CCOCC4)cc4nccnc34)CC2)cc1 [Compound 648]
CCOC1CCN(c2cc(N[C@H]3CC[C@@H](Oc4cc(N5CCOCC5)cc5nccnc45)CC3)ncn2)CC1 [Compound 472]
CC1(C)CC(c2cnc(N[C@H]3CC[C@@H](Oc4cc(N5CCOCC5)cc5nccnc45)CC3)nc2)CC(C)(C)N1 [Compound 550]
Cc1ncn2ccnc(N[C@H]3CC[C@@H](Oc4cc(N5CCOCC5)cc5nccnc45)CC3)c12 [Compound 313]
CSc1nc(N[C@H]2CC[C@@H](Oc3cc(N4CCOCC4)cc4nccnc34)CC2)cs1 [Compound 628]
CN(C)c1cc(N[C@H]2CC[C@@H](Oc3cc(N4CCOCC4)cc4nccnc34)CC2)ncn1 [Compound 603]
c1cnc2c(O[C@H]3CC[C@@H](Nc4ncc(CCN5CCOCC5)cn4)CC3)cc(N3CCOCC3)cc2n1 [Compound 434]
c1nc(CN2CCCCC2)cc(N[C@H]2CC[C@@H](Oc3cc(N4CCOCC4)cc4nccnc34)CC2)n1 [Compound 389]
Cc1nnc2c(N[C@H]3CC[C@@H](Oc4cc(N5CCOCC5)cc5nccnc45)CC3)nccn12 [Compound 310]
COc1c(Cl)ncnc1N[C@H]1CC[C@@H](Oc2cc(N3CCOCC3)cc3nccnc23)CC1 [Compound 402]
Cc1ncc(N)c(N[C@H]2CC[C@@H](Oc3cc(N4CCOCC4)cc4nccnc34)CC2)n1 [Compound 369]
Cc1ncc(F)c(N[C@H]2CC[C@@H](Oc3cc(N4CCOCC4)cc4nccnc34)CC2)n1 [Compound 494]
c1cnc2c(O[C@H]3CC[C@@H](Nc4ncnc5cc[nH]c45)CC3)cc(N3CCOCC3)cc2n1 [Compound 517]
